Data as given in patent publication US20060069132A1, “Azolecarboxamide herbicides” (priority 2004, published 2006).

Columns and labels:
pigweed = experiment: Test B pre-/postemergence herbicide test; type: in vivo, Amaranthus retroflexus; conditions: for Plant response rating, Pigweed: preemergence; for Pigweed plant response rating: postemergence, visual rating, scale 0 (no effect) to 100 (complete control)
Summary of the method: (§1)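 Evaluation is visual, comparing treated with control plants on a scale where 0 means no effect and 100 means full control. Treatments were preemergence, or postemergence on seedlings 2–18 cm tall, and held 13–15 days in the greenhouse.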

velvetleaf [1] = experiment: Test A pre-/postemergence herbicide test; type: in vivo, Abutilon theophrasti
Summary of the method: (§2)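 Plants are held in greenhouse about ten days after treatment, then compared with untreated controls and scored 0 (no effect) to 100 (complete control). Preemergence dosing is a directed soil spray on sown sandy loam; postemergence dosing is spray to runoff at 2–10 cm height.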

large crabgrass [2] = experiment: Test A pre-/postemergence herbicide test; type: in vivo, Digitaria sanguinalis
Summary of the method: as §2

morningglory [3] = experiment: Test A pre-/postemergence herbicide test; type: in vivo, Ipomoea spp.
Summary of the method: as §2

corn = experiment: Test B pre-/postemergence herbicide test; type: in vivo, Zea mays; conditions: for Plant response rating, Corn: preemergence; for Corn plant response rating: postemergence, visual rating, scale 0 (no effect) to 100 (complete control)
Summary of the method: as §1

large crabgrass [4] = experiment: Test B pre-/postemergence herbicide test; type: in vivo, Digitaria sanguinalis; conditions: for Plant response rating, Crabgrass, Large: preemergence; for Crabgrass, Large plant response rating: postemergence, visual rating, scale 0 (no effect) to 100 (complete control)
Summary of the method: as §1

cocklebur = experiment: Test B pre-/postemergence herbicide test; type: in vivo, Xanthium strumarium; conditions: for Plant response rating, Cocklebur: preemergence; for Cocklebur plant response rating: postemergence, visual rating, scale 0 (no effect) to 100 (complete control)
Summary of the method: (§3)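 Species tested were Echinochloa crus-galli, Ipomoea coccinea, Xanthium strumarium and Oryza sativa, treated both before emergence and at the 1- to 4-leaf stage; rice and barnyardgrass were also tested under flooding at 2 leaves. Greenhouse incubation lasted 13–15 days before visual 0–100 scoring.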

wild oat = experiment: Test B postemergence herbicide test; type: in vivo, Avena fatua; conditions: postemergence, visual rating, scale 0 (no effect) to 100 (complete control)
Summary of the method: (§4)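 Formulated test chemicals went onto postemergence plants measuring 2 to 18 cm, at one to four leaves. For the paddy assay, species had reached two leaves. Scoring took place 13–15 days later by eye, relative to untreated plants, using 0 for no effect up to 100 for full control.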

barnyardgrass [5] = experiment: Test B flooded paddy test; type: in vivo, Echinochloa crus-galli; conditions: 1000 g ai/ha, visual rating, scale 0 to 100 (0 no effect, 100 complete control), 13 to 15 days
Summary of the method: (§5)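 Plants grow to 1- to 4-leaf stage (2–18 cm) for postemergence spraying, or to 2-leaf stage for the paddy test. Formulated compound is applied. Greenhouse holding lasts 13–15 days. Response is scored visually relative to controls, 0 no effect to 100 complete control; a dash means no result.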

velvetleaf [6] = experiment: Test B pre-/postemergence herbicide test; type: in vivo, Abutilon theophrasti; conditions: for Plant response rating, Velvetleaf: preemergence; for Velvetleaf plant response rating: postemergence, visual rating, scale 0 (no effect) to 100 (complete control)
Summary of the method: as §1

redroot pigweed = experiment: Test A pre-/postemergence herbicide test; type: in vivo, Amaranthus retroflexus
Summary of the method: as §2

rice [7] = experiment: Test B flooded paddy test; type: in vivo, Oryza sativa; conditions: 1000 g ai/ha, visual rating, scale 0 to 100 (0 no effect, 100 complete control), 13 to 15 days
Summary of the method: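 Each value is a visual 0–100 response rating taken against controls 13 to 15 days after treatment in the greenhouse. Plants received formulated chemical postemergence at the 1- to 4-leaf stage or, in flooded paddy, at the 2-leaf stage.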

barnyardgrass [8] = experiment: Test A pre-/postemergence herbicide test; type: in vivo, Echinochloa crus-galli
Summary of the method: as §2

ducksalad = experiment: Test B flooded paddy test; type: in vivo, Heteranthera limosa; conditions: 1000 g ai/ha, visual rating, scale 0 to 100 (0 no effect, 100 complete control), 13 to 15 days
Summary of the method: as §5

[9] = system: small flower umbrella sedge; experiment: Test B flooded paddy test; type: in vivo, Cyperus difformis; conditions: 1000 g ai/ha, visual rating, scale 0 to 100 (0 no effect, 100 complete control), 13 to 15 days
Summary of the method: as §5

rice [10] = experiment: Test B pre-/postemergence herbicide test; type: in vivo, Oryza sativa; conditions: preemergence, 125 g ai/ha; 0 to 100 scale, 0 is no effect, 100 is complete control
Summary of the method: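 Plants compared with untreated controls 13–15 days post-treatment and given a visual 0–100 injury score. Applications: preemergence to seeds; postemergence at 1- to 4-leaf (2–18 cm); paddy species flooded, 2-leaf stage. Vehicle non-phytotoxic, surfactant included.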

Surinam grass = experiment: Test B pre-/postemergence herbicide test; type: in vivo, Urochloa decumbens; conditions: for Plant response rating, Surinam Grass: preemergence; for Surinam Grass plant response rating: postemergence, visual rating, scale 0 (no effect) to 100 (complete control)
Summary of the method: as §1

barnyardgrass [11] = experiment: Test B pre-/postemergence herbicide test; type: in vivo, Echinochloa crus-galli; conditions: for Plant response rating, Barnyardgrass: preemergence; for Barnyardgrass plant response rating: postemergence, visual rating, scale 0 (no effect) to 100 (complete control)
Summary of the method: as §3

giant foxtail [12] = experiment: Test B pre-/postemergence herbicide test; type: in vivo, Setaria faberi; conditions: for Plant response rating, Foxtail, Giant: preemergence; for Foxtail, Giant plant response rating: postemergence, visual rating, scale 0 (no effect) to 100 (complete control)
Summary of the method: as §1

lambsquarters = experiment: Test B pre-/postemergence herbicide test; type: in vivo, Chenopodium album; conditions: for Plant response rating, Lambsquarters: preemergence; for Lambsquarters plant response rating: postemergence, visual rating, scale 0 (no effect) to 100 (complete control)
Summary of the method: as §1

morningglory [13] = experiment: Test B pre-/postemergence herbicide test; type: in vivo, Ipomoea coccinea; conditions: for Plant response rating, Morningglory: preemergence; for Morningglory plant response rating: postemergence, visual rating, scale 0 (no effect) to 100 (complete control)
Summary of the method: as §3

wheat = experiment: Test B postemergence herbicide test; type: in vivo, Triticum aestivum; design: key to Wheat plant response rating: 0 = no effect, 100 = complete control; conditions: postemergence, visual rating, scale 0 (no effect) to 100 (complete control)
Summary of the method: as §4

giant foxtail [14] = experiment: Test A pre-/postemergence herbicide test; type: in vivo, Setaria faberi
Summary of the method: as §2

blackgrass = experiment: Test B postemergence herbicide test; type: in vivo, Alopecurus myosuroides; conditions: postemergence, visual rating, scale 0 (no effect) to 100 (complete control)
Summary of the method: as §5

[15] = 500 g ai/ha, visual rating 0-100, 0 no effect, 100 complete control
[16] = 125 g ai/ha, 0 to 100 scale, 0 is no effect, 100 is complete control
[17] = Postemergence, 500 g ai/ha, 0 to 100 scale, 0 no effect, 100 complete control
[18] = Postemergence, 2000 g ai/ha, 0 to 100 scale, 0 no effect, 100 complete control
[19] = Preemergence, 2000 g ai/ha, visual rating, 0 to 100 scale (0 no effect, 100 complete control)
[20] = preemergence, 500 g ai/ha, visual injury, 0 to 100 scale (0 no effect, 100 complete control)
[21] = Preemergence, 500 g ai/ha, visual rating, 0 to 100 scale (0 no effect, 100 complete control)

## Cn1nc(C(C)(C)C)cc1C(=O)Nc1cccc(C#N)c1 [Compound 121]
pigweed; [15]
  Plant response rating, Pigweed: 100
pigweed; 125 g ai/ha
  Pigweed plant response rating: 30
pigweed; 500 g ai/ha
  Pigweed plant response rating: 50
pigweed; [16]
  Plant response rating, Pigweed: 80
Velvetleaf [1]; [17]
  Velvetleaf plant response rating: 10
Velvetleaf [1]; [18]
  Plant response rating, Velvetleaf: 15
Velvetleaf [1]; [19]
  Velvetleaf plant response rating: 30
Velvetleaf [1]; [20]
  Velvetleaf plant response rating: 10
Large crabgrass [2]; [17]
  Crabgrass, Large plant response rating: 10
Large crabgrass [2]; [18]
  Plant response rating, Crabgrass, Large: 10
Large crabgrass [2]; [21]
  Crabgrass, Large plant response rating: 10
Large crabgrass [2]; [19]
  Crabgrass, Large plant response rating: 75
Morningglory [3]; [17]
  Morningglory plant response rating: 20
Morningglory [3]; [18]
  Plant response rating, Morningglory: 20
Morningglory [3]; [21]
  Morningglory plant response rating: 5
Morningglory [3]; [19]
  Morningglory plant response rating: 20
corn; [15]
  Plant response rating, Corn: 0
corn; 125 g ai/ha
  Corn plant response rating: 0
corn; 500 g ai/ha
  Corn plant response rating: 10
corn; [16]
  Plant response rating, Corn: 0
Large crabgrass [4]; [15]
  Plant response rating, Crabgrass, Large: 50
Large crabgrass [4]; 125 g ai/ha
  Crabgrass, Large plant response rating: 10
Large crabgrass [4]; 500 g ai/ha
  Crabgrass, Large plant response rating: 10
Large crabgrass [4]; [16]
  Plant response rating, Crabgrass, Large: 0
cocklebur; [15]
  Plant response rating, Cocklebur: 0
cocklebur; 125 g ai/ha
  Cocklebur plant response rating: 10
cocklebur; 500 g ai/ha
  Cocklebur plant response rating: 20
cocklebur; [16]
  Plant response rating, Cocklebur: 0
Wild oat; 125 g ai/ha
  Oat, Wild plant response rating: 10
Wild oat; 500 g ai/ha
  Oat, Wild plant response rating: 30
Barnyardgrass [5]
  Barnyardgrass plant response rating: 0
Velvetleaf [6]; [15]
  Plant response rating, Velvetleaf: 20
Velvetleaf [6]; 125 g ai/ha
  Velvetleaf plant response rating: 10
Velvetleaf [6]; 500 g ai/ha
  Velvetleaf plant response rating: 20
Velvetleaf [6]; [16]
  Plant response rating, Velvetleaf: 0
Redroot pigweed; [17]
  Pigweed plant response rating: 90
Redroot pigweed; [18]
  Plant response rating, Pigweed: 100
Redroot pigweed; [19]
  Pigweed plant response rating: 100
Redroot pigweed; [20]
  Pigweed plant response rating: 95
Rice [7]
  Rice plant response rating: 0
Barnyardgrass [8]; [17]
  Barnyardgrass plant response rating: 10
Barnyardgrass [8]; [18]
  Plant response rating, Barnyardgrass: 35
Barnyardgrass [8]; [21]
  Barnyardgrass plant response rating: 15
Barnyardgrass [8]; [19]
  Barnyardgrass plant response rating: 40
ducksalad
  Ducksalad plant response rating: 0
[9]
  Sedge, Umbrella plant response rating: 0
Rice [10]
  Plant response rating, Rice: 0
Surinam grass; [15]
  Plant response rating, Surinam Grass: 20
Surinam grass; 125 g ai/ha
  Surinam Grass plant response rating: 10
Surinam grass; 500 g ai/ha
  Surinam Grass plant response rating: 30
Surinam grass; [16]
  Plant response rating, Surinam Grass: 0
Barnyardgrass [11]; [15]
  Plant response rating, Barnyardgrass: 80
Barnyardgrass [11]; 125 g ai/ha
  Barnyardgrass plant response rating: 0
Barnyardgrass [11]; 500 g ai/ha
  Barnyardgrass plant response rating: 0
Barnyardgrass [11]; [16]
  Plant response rating, Barnyardgrass: 0
Giant foxtail [12]; [15]
  Plant response rating, Foxtail, Giant: 70
Giant foxtail [12]; 125 g ai/ha
  Foxtail, Giant plant response rating: 0
Giant foxtail [12]; 500 g ai/ha
  Foxtail, Giant plant response rating: 10
Giant foxtail [12]; [16]
  Plant response rating, Foxtail, Giant: 0
lambsquarters; [15]
  Plant response rating, Lambsquarters: 100
lambsquarters; 125 g ai/ha
  Lambsquarters plant response rating: 80
lambsquarters; 500 g ai/ha
  Lambsquarters plant response rating: 80
lambsquarters; [16]
  Plant response rating, Lambsquarters: 70
Morningglory [13]; [15]
  Plant response rating, Morningglory: 20
Morningglory [13]; 125 g ai/ha
  Morningglory plant response rating: 0
Morningglory [13]; 500 g ai/ha
  Morningglory plant response rating: 0
Morningglory [13]; [16]
  Plant response rating, Morningglory: 0
wheat; 125 g ai/ha
  Wheat plant response rating: 0
wheat; 500 g ai/ha
  Wheat plant response rating: 0
Giant foxtail [14]; [17]
  Foxtail, Giant plant response rating: 15
Giant foxtail [14]; [18]
  Plant response rating, Foxtail, Giant: 25
Giant foxtail [14]; [21]
  Foxtail, Giant plant response rating: 25
Giant foxtail [14]; [19]
  Foxtail, Giant plant response rating: 75
blackgrass; 125 g ai/ha
  Blackgrass plant response rating: 0
blackgrass; 500 g ai/ha
  Blackgrass plant response rating: 0
